From patent US20160228056A1, “DYNAMIC POSITRON EMISSION TOMOGRAPHY IMAGING” (THE GENERAL HOSPITAL CORPORATION, priority 2013, published 2016)
Entries after “also recorded” stand apart in the source; their conditions may differ.

What was measured:
[1] = cited from earlier work; for K1 (rate constant, transport from blood to brain) / k2 (rate constant, transport back from brain to blood) / k3 (rate constant, phosphorylation in the brain tissue): two-tissue compartment model (Reivich et al., 1985)
glucose utilization = assay: fPET-FDG constant infusion with checkerboard visual stimulation; type: in vivo, human; conditions: for mean percent increase in glucose utilization derived from fPET-FDG: fixed-effect group analysis, three subjects
Description: To interrogate dynamic metabolic information, a 90-minute constant FDG infusion paradigm was used (0.01 ml/s, 5 mCi total calculated to the beginning of infusion), during which we periodically presented a conventional visual stimulus consisting of an 8-Hz counterphase flickering “checkerboard” pattern as shown in FIG. 2A. The stimulus was projected on a screen mounted at the end of the magnet bore, and subjects (n=3) viewed the stimulus through a mirror. We used three different stimuli: two full-field checkerboard stimulus periods for a duration of 10 minutes each, and two hemi-field checkerboard stimulus periods (right and left) for a duration of 5 minutes each (FIG. 2A). This design allowed us to confirm that the observed metabolic signal changes were specific to the stimuli, and also that multiple stimuli (four in this case) can be measured dynamically during a single scan of a single subject. In addition to our dynamic analysis, the fPET-FDG data were also binned into 90 one-minute frames using previously published methods (see, Catana et al., J Nucl Med 51, 1431, September, 2010; and Catana et al., J Nucl Med 52, 154, January 2011). During the fPET-FDG scan, functional MR data were simultaneously collected using a Siemens BrainPET scanner. BOLD data were collected prior to and during the first 10 minute full-field checkerboard and the two hemi-field checkerboard stimuli; and ASL data were collected prior to and during the second 10 minute full-field checkerboard stimulus.
FDG was delivered at a constant rate during our fPET studies. At steady state, the rate of FDG utilization in a given voxel is proportional to the slope of the radioactivity accumulated in that voxel. As shown in Example 1 below, during steady state the slope of the voxelwise FDG uptake from fPET can be represented as: slope=(CMRglu*LC*Cp)/Ca^o where LC is the lumped constant which converts FDG metabolic rate to glucose metabolic rate, Ca^o is a measurement of plasma glucose (see, Reivich et al., Circ Res 44, 127, January 1979; and Phelps et al., Ann Neurol 6, 371, November 1979), and Cp is the plasma radioactivity concentration (which is controlled through constant infusion). The slope is an approximation for (K1k3)/(k2+k3) scaled by Cp and is thus analogous to Ki (the influx rate constant) determined by a linear approximation of a bolus FDG injection by Patlak analysis (see, Patlak et al., J Cereb Blood Flow Metab 3, 1, Mar. 1983; and Lucignani et al., J Nucl Med 34, 360, March 1993). Changes in slope are thus proportional to changes in CMRglu. By taking the derivative of the fPET-FDG uptake time course estimated using pairwise subtraction of the 90 one minute frames to form a relative index of uptake rate, we generated a time series akin to a BOLD fMRI signal to represent change in CMRglu. We then used fMRI software, FSL's (FMRIB Software Library) FEAT (see Jenkinson et al., Neuroimage 62, 782, Aug. 15, 2012) to process the fPET-FDG data using a generalized linear model (GLM) with 3 different explanatory variables (EV): (i) 2 blocks of the 10 minutes full-field checkerboard paradigm (EV1), (ii) a 5 minute block of left hemi-field checkerboard (EV2) and (iii) a 5 minute block of right hemi-field checkerboard (EV3). Confirmation of functional specificity is inherent in our analyses given that both hemispheres of the visual system respond equally to the full-field checkerboard whereas the contralateral hemisphere has a higher response to a hemi-field checkerboard. […]

[2] = blood radioactivity during the FDG infusion protocol; type: in vivo, human; conditions: constant infusion
Description: FDG was administered in saline intravenously at a constant infusion rate of 0.01 ml/s for 90 minutes to healthy subjects (1 female/2 males, mean age 32±2) using a Medrad® Spectra Solaris syringe pump. In a separate experiment, FDG was administered as a traditional bolus injection (5 mCi administered in 5 mL saline over ˜30 seconds) during rest for 3 additional healthy subjects (1 female/2 males, mean age 29±3). Venous blood samples were collected in all subjects during scanning, then centrifuged to obtain plasma, and aliquoted in a gamma counter that had been precalibrated to the PET scanner to measure the venous activity during the experiment. The fPET-FDG data were binned into 90 one-minute frames. The reconstructed volume was down-sampled to 76 slices with 128×128 voxels (2.5×2.5×2.5 mm^3) with one minute time frames. For bolus FDG comparison studies, data were processed as a single frame (40-70 minutes post injection) and analogously down-sampled. Standardized Uptake Values (SUVs) were normalized to gray matter uptake for each subject.
FDG in saline solution was administered intravenously at a constant infusion rate of 0.01 ml/s for 90 min to healthy subjects (1 female/2 males, mean age 32±2 years) using a Medrad® Spectra Solaris syringe pump (initial activity=5±0.6 mCi). […]

cerebral blood flow = assay: non-human primate hypercapnia experiment with fPET-FDG and ASL CBF; type: in vivo, baboon
Excerpt: To assess the influence of cerebral blood flow changes on FDG signal we administered inhaled carbon dioxide, a strong vasodilatory stimulus, to two baboons (2 females, ˜10-12 kg) simultaneously with fPET-FDG and arterial spin labeling (ASL) MRI for CBF measurements. The protocol was approved by the Institutional Animal Care and Use Committee. Animals were anesthetized with isoflurane (1%) and mechanically ventilated. Physiological parameters were continuously monitored and maintained within the normal range. All images were acquired on the same 3T Siemens TIM-Trio with a BrainPET insert as the human data, using a custom PET-compatible 8-channel array coil. Similar to the human protocol, ˜5 mCi of FDG was continuously infused intravenously at a rate of 0.01 mL/sec for each study. PET data were stored in list mode and binned into 1-minute frames. Dual echo pseudo-continuous arterial spin labeling (pCASL) data were acquired simultaneously (TR/TE1/TE2=4000/12/30 ms, 2.2×2.2×4 mm) (Wey et al., 2010). During a 50 minute dynamic fPET/fMRI scan, a hypercapnic challenge (7% CO2) was given for 10 minutes between 30 and 40 minutes. All data were motion and slice-time corrected, skull stripped, spatially smoothed and registered to a standard NHP atlas. Percent changes in gray matter CBF were calculated.

[3] = 10 minute full checkerboard, average of 3 subjects, exponential fit

Molecule	extraction fraction ([1]; brain)	K1 (rate constant, transport from blood to brain) [1]	k2 (rate constant, transport back from brain to blood) [1]	k3 (rate constant, phosphorylation in the brain tissue) [1]	tau of the exponential decrease in FDG signal after the end of the activation (glucose utilization; [3])	tau of the exponential increase in FDG signal after the beginning of the activation (glucose utilization; [3])	mean percent increase in glucose utilization derived from fPET-FDG (glucose utilization; full-field checkerboard vs baseline)	mean percent increase in glucose utilization derived from fPET-FDG (glucose utilization; left hemi-field checkerboard vs baseline)	mean percent increase in glucose utilization derived from fPET-FDG (glucose utilization; right hemi-field checkerboard vs baseline)	blood radioactivity during the infusion protocol, maximum ([2]; venous plasma blood)	blood radioactivity during the infusion protocol, average ([2]; whole blood)	CBF increase on average (cerebral blood flow; gray matter, ASL, 10 minutes of hypercapnia (7% CO2), anesthetized baboon)	effect on FDG uptake rate / FDG signal slope (cerebral blood flow; hypercapnia (7% CO2) between 30 and 40 minutes of 50 minute FDG infusion, baboon)	CBF change at maximum (cerebral blood flow; hypercapnia stimulus (7% CO2), baboon)
2-[^18F]-fluoro-2-deoxyglucose [FDG]	4%	0.1 mL/min	0.15 min⁻¹	0.08 min⁻¹	5.6 min	4.9 min	25%	26%	28%	4 kBq/cc	4 kBq/cc			
O=C=O [carbon dioxide]												70%	did not alter FDG uptake rate; also recorded: did not induce any measurable change	120%
OCC1OC(O)CC(O)C1O (centres unmarked) [deoxyglucose]		~0.1 mL/min	~0.15 min⁻¹	~0.08 min⁻¹										
